Measurements as given in article PMC6063448, “Antimicrobial activity of linear lipopeptides derived from BP100 towards plant pathogens” (PLoS ONE, 2018).

What was measured:
[1] = tested on: Fusarium oxysporum f. sp. lycopersici FOL 3 race 2; assay: MIC, antifungal growth inhibition in microtiter plates (PDB); assay type: cell-based; settings: Fo, 22°C, seven days, OD 600 nm, lowest concentration with no growth, given as interval of tested concentrations, three replicates, experiment repeated twice
Protocol: (§1) The following plant pathogenic fungal strains were used: Penicillium expansum EPS26 (Institut de Tecnologia Agroalimentària, Universitat de Girona, Spain) and Fusarium oxysporum f. sp. lycopersici FOL 3 race 2 (ATCC 201829, American Type Culture Collection,Virginia, EEUU). Strains were cultured on potato dextrose agar (PDA) plates (Difco). Conidia from P. expansum and microconidia from F. oxysporum were obtained from 5–7 day-old agar Potato Dextrose (PDA) cultures after growth at 25°C. Inoculum was prepared by scraping spore material from culture surfaces with a cotton swab and resuspending it in distilled water containing 0.5‰ of tween 80. The suspensions were filtered through Miracloth (Merk, Millipore) and the concentration of conidia was determined using a hemacytometer and adjusted to 10^4 conidia mL^-1 for F. oxysporum and to 10^3 conidia mL^-1 for P. expansum.
(§2) Lyophilized peptides were solubilized in sterile Milli-Q water to a final concentration of 1 mM and filter sterilized through a 0.22-μm pore filter. […] For antibacterial activity 20 μL of each dilution were mixed in a microtiter plate well with 20 μL of the corresponding suspension of the bacterial indicator, 160 μL of Trypticase Soy Broth (TSB) (BioMèrieux, France) to a total volume of 200 μL. For antifungal activity 20 μL of each stock solution were mixed in a microtiter plate well with 80 μL of the corresponding suspension of the fungal pathogen and 100 μL of double concentrated Potato Dextrose Broth (PDB) to a total volume of 200 μL containing 0.003% w/v of chloramphenicol to prevent bacterial contamination.
(§3) Three replicates for each combination of strain, compound and concentration were used. Microbial growth was determined by optical density measurement at 600 nm (Bioscreen C, Labsystem, Helsinki, Finland). For antibacterial activity microplates were incubated at 25°C with 20 s shaking before hourly absorbance measurement for 48 h. For antifungal activity microplates were incubated at 22°C with 1 min shaking before absorbance measurement that were done every two hours during seven days. The experiment was repeated twice. The MIC was taken as the lowest compound concentration with no growth at the end of the experiment.

[2] = tested on: Penicillium expansum EPS26; assay: as above; assay type: cell-based; settings: Pe, 22°C, seven days, OD 600 nm, lowest concentration with no growth, given as interval of tested concentrations, three replicates, experiment repeated twice
Protocol: as §1, §2, §3

[3] = tested on: Erwinia amylovora PMV6076; assay: MIC, growth inhibition in microtiter plates (TSB); assay type: cell-based; settings: Ea, 25°C, 48 h, OD 600 nm, lowest concentration with no growth, given as interval of tested concentrations, three replicates, experiment repeated twice
Excerpt: (§4) The following plant pathogenic bacterial strains were used: Erwinia amylovora PMV6076 (Institut National de la Recherche Agronomique, Angers, France), Pseudomonas syringae pv. syringae EPS94 (Institut de Tecnologia Agroalimentària, Universitat de Girona, Spain), Xanthomonas axonopodis pv. vesicatoria 2133–2, Pseudomonas syringae pv. actinidiae Psa3700.1.1, Xanthomonas fragariae Xf349-9A (Instituto Valenciano de Investigaciones Agrarias, Valencia, Spain), and Xanthomonas arboricola pv. pruni CFBP5563 (Collection Française de Bactéries associées aux Plantes, Angers, France). All bacteria except for X. fragariae were stored in Luria Bertani (LB) broth supplemented with glycerol (20%) and maintained at -80°C. For X. fragariae, Medium B [46] was used instead of LB. E. amylovora, X. arboricola pv. pruni, P. syringae pv. syringae and P. syringae pv. actinidiae were scrapped from the agar media after growing for 24 h at 25°C, and X. axonopodis pv. vesicatoria and X. fragariae after growing for 48 h at 25°C. The cell material was suspended in sterile water to obtain a suspension of 10^8 CFU mL^-1.
as §2, §3

[4] = tested on: Xanthomonas arboricola pv. pruni CFBP5563; assay: MIC, growth inhibition in microtiter plates (TSB); assay type: cell-based; settings: Xap, 25°C, 48 h, OD 600 nm, lowest concentration with no growth, given as interval of tested concentrations, three replicates, experiment repeated twice
Excerpt: as §4, §2, §3

[5] = tested on: Xanthomonas axonopodis pv. vesicatoria 2133–2; assay: MIC, growth inhibition in microtiter plates (TSB); assay type: cell-based; settings: Xav, 25°C, 48 h, OD 600 nm, lowest concentration with no growth, given as interval of tested concentrations, three replicates, experiment repeated twice
Excerpt: as §4, §2, §3

[6] = tested on: Xanthomonas fragariae Xf349-9A; assay: MIC, growth inhibition in microtiter plates (TSB); assay type: cell-based; settings: Xf, 25°C, 48 h, OD 600 nm, lowest concentration with no growth, given as interval of tested concentrations, three replicates, experiment repeated twice
Excerpt: as §4, §2, §3

[7] = tested on: Pseudomonas syringae pv. actinidiae Psa3700.1.1; assay: MIC, growth inhibition in microtiter plates (TSB); assay type: cell-based; settings: Psa, 25°C, 48 h, OD 600 nm, lowest concentration with no growth, given as interval of tested concentrations, three replicates, experiment repeated twice
Excerpt: as §4, §2, §3

[8] = tested on: Pseudomonas syringae pv. syringae EPS94; assay: MIC, growth inhibition in microtiter plates (TSB); assay type: cell-based; settings: Pss, 25°C, 48 h, OD 600 nm, lowest concentration with no growth, given as interval of tested concentrations, three replicates, experiment repeated twice
Excerpt: as §4, §2, §3

[9] = tested on: defense-related genes in tomato plants; assay: Induction of defense gene expression of tomato plants (RT-qPCR); assay type: in vivo, tomato cv. Rio Grande; settings: tomato leaves sprayed, 24 h; peptides and flg15 125 μM, JA 2.5 mM, ASM 300 mg/L; ΔΔCt relative to actin; above 2 = overexpression
Protocol: Seeds of tomato cv. Rio Grande plants were sown in hydroponic seed plugs (rockwool), germinated and grown under controlled greenhouse conditions (25 ± 2°C, 16 h light / 15 ± 2°C, 8 h dark, and 60% RH). Two-week old seedlings (two cotyledons) were transplanted into rockwool plugs (7.5×7.5×6.5 cm, Grodan Iberica). The experimental design consisted of three replicates of three plants per treatment. After two weeks, tomato leaves were sprayed with aqueous solutions of BP100, 9 selected derivatives and flg15 at 125 μM, jasmonic acid at 2.5 mM (Sigma-Aldrich, Sant Louis, Missouri, UE), and acybenzolar-S-methyl at 300 mg/L (Syngenta, Basel, Switzerland), until the run-off point. Water-sprayed plants were used as not treated controls. Twenty-four hours after product application leaf samples were collected and processed to extract RNA for RT-qPCR assays. Plant material was ground to a fine powder in liquid nitrogen with the Tissuelyzer II system (Qiagen). Total RNA was extracted from leaves using PureLink Plant RNA Reagent (Invitrogen, Life Technologies) according to the manufacturer’s manual. The RNA was solubilized in RNAse free water and was routinely subjected to DNAse treatment (Ambion® Turbo DNA-free™, Life Technologies) to remove any contaminant DNA. In each step, the RNA was quantified using a Nanodrop N-2000 spectrophotometer, and its integrity verified by denaturing agarose gel electrophoresis. First-strand of complementary DNA (cDNA) was generated from leave RNA using reverse transcriptase (High Capacity cDNA Reverse Transcription Kit, Invitrogen) according to the manufacturer’s manual.
To test gene defense induction in the treated tomato plants, a qPCR assay was performed. Quantitative PCR was carried out in a fluorometric thermal cycler (qPCR Quant Studio 5, Applied Biosystems) by using a Mix SYBR®Green PCR Master Mix (Applied Biosystems). The total reaction volume of this PCR reaction was 20 μL and the reaction mixture was 1 μL of each primer set at the adequate concentration, 10 μL of MixSyber Green, 6 μL of distilled water and 2 μL of cDNA. Melting curve analysis was performed after amplification to verify amplification specificity. A constitutive gene (actin gene) was used as reference control, and the following genes implicated in plant defense response were analyzed: Pathogenesis-related protein-1 (PR1), Harpin (Harp), Polyphenol oxidase (PPO), Subtilisin-like protease (Sub1), Blue copper binding-protein (BCB), Osmotin (Osm2), Acidic β-1,3 endoglucanase (GluA), Lypoxigenase (LOX), Protein inhibitor II (PinII), Dehydrin (Tas14) and Ethylene response transcription factor (ERT3). […] For each gene system, the concentration of the primer pair was optimized. The primer concentration was 100 nM for all the genes except for the GluA, Harp, PR1 and actin genes which optimized concentration was 300 nM. A calibration curve was prepared by cloning the corresponding DNA in the pSpark cloning vector (Canvax, Córdoba, Spain) according to the manufacturer instructions, which was then used to transform E. coli DH5α by standard procedures. The number of plasmid copies were quantified after purification from E. coli (QIAGEN Iberia, S. L., Madrid, Spain), and appropriate dilutions were prepared to obtain the standard curve. […] Relative quantification of gene expression was done using the ΔΔCt method. Each biological repetition treatment was analyzed in duplicate. The mean of the Ct values obtained were used to estimate the fold change value of the endogenous reference gene (actin) and the target plant defense genes.

Row | SMILES | MIC [1] [µM] | MIC [2] [µM] | MIC [3] [µM] | MIC [4] [µM] | MIC [5] [µM] | MIC [6] [µM] | MIC [7] [µM] | MIC [8] [µM] | BCB gene expression, fold induction [9] | ERT3 gene expression, fold induction [9] | GluA gene expression, fold induction [9] | Harp gene expression, fold induction [9] | LOX gene expression, fold induction [9] | Osm2 gene expression, fold induction [9] | PPO gene expression, fold induction [9] | PR1 gene expression, fold induction [9] | PinII gene expression, fold induction [9] | Sub1 gene expression, fold induction [9] | Tas14 gene expression, fold induction [9]
1 | CCCC(=O)NCCCC[C@H](NC(=O)[C@H](CCCCN)NC(=O)[C@H](CCCCN)NC(=O)[C@H](Cc1ccccc1)NC(=O)[C@H](CC(C)C)NC(=O)[C@H](CCCCN)NC(=O)[C@H](CCCCN)NC(C)=O)C(=O)N[C@@H](CC(C)C)C(=O)N[C@@H](CCCCN)C(=O)N[C@@H](Cc1ccc(O)cc1)C(=O)N[C@@H](CC(C)C)C(N)=O [BP386, Ac-KKLFKKK(COC3H7)LKYL-NH2] | 12.5 to 25 | >25 | 12.5 to 25 | 12.5 to 25 | 12.5 to 25 | 12.5 to 25 | 6.2 to 12.5 |  |  |  |  |  |  |  |  |  |  |  | 
2 | CCCCCCCCCCCC(=O)NCCCC[C@H](NC(=O)[C@H](CCCCN)NC(=O)[C@H](CCCCN)NC(=O)[C@H](Cc1ccccc1)NC(=O)[C@H](CC(C)C)NC(=O)[C@H](CCCCN)NC(=O)[C@H](CCCCN)NC(C)=O)C(=O)N[C@@H](CC(C)C)C(=O)N[C@@H](CCCCN)C(=O)N[C@@H](Cc1ccc(O)cc1)C(=O)N[C@@H](CC(C)C)C(N)=O [BP398, Ac-KKLFKKK(COC11H23)LKYL-NH2] | 6.2 to 12.5 | >25 | >25 | 1.6 to 3.1 | 0.8 to 1.6 | 3.1 to 6.2 | 3.1 to 6.2 | 3.1 to 6.2 |  |  |  |  |  |  |  |  |  |  | 
3 | CCCCCCCCCCCC(=O)NCCCC[C@H](NC(=O)[C@H](CCCCN)NC(C)=O)C(=O)N[C@@H](CC(C)C)C(=O)N[C@@H](Cc1ccccc1)C(=O)N[C@@H](CCCCN)C(=O)N[C@@H](CCCCN)C(=O)N[C@H](C(=O)N[C@@H](CC(C)C)C(=O)N[C@@H](CCCCN)C(=O)N[C@@H](Cc1ccc(O)cc1)C(=O)N[C@@H](CC(C)C)C(N)=O)[C@@H](C)CC [BP393, Ac-KK(COC11H23)LFKKILKYL-NH2] | 1.6 to 3.1 | >25 | 12.5 to 25 | 3.1 to 6.2 | 3.1 to 6.2 | 3.1 to 6.2 | 6.2 to 12.5 | 12.5 to 25 |  |  |  |  |  |  |  |  |  |  | 
4 | CCCCCC(=O)N[C@@H](CCCCN)C(=O)N[C@@H](CCCCN)C(=O)N[C@@H](CC(C)C)C(=O)N[C@@H](Cc1ccccc1)C(=O)N[C@@H](CCCCN)C(=O)N[C@@H](CCCCN)C(=O)N[C@H](C(=O)N[C@@H](CC(C)C)C(=O)N[C@@H](CCCCN)C(=O)N[C@@H](Cc1ccc(O)cc1)C(=O)N[C@@H](CC(C)C)C(N)=O)[C@@H](C)CC [BP367, C5H11CO-KKLFKKILKYL-NH2] | 1.6 to 3.1 | 12.5 to 25 | 3.1 to 6.2 | 3.1 to 6.2 | 3.1 to 6.2 | 3.1 to 6.2 | 3.1 to 6.2 | 3.1 to 6.2 |  |  |  |  |  |  |  |  |  |  | 
5 | CSC(=O)c1cccc2nnsc12 [ASM, acybenzolar-S-methyl, reference compound] |  |  |  |  |  |  |  |  | 12.1 | 2.9 | 5.9 | 6.3 | 3.3 | 8.7 | 2.9 | 4.8 | 0.5 | 11.6 | 10.7
6 | CC/C=C\C[C@H]1C(=O)CC[C@@H]1CC(=O)O [JA, jasmonic acid, reference compound] |  |  |  |  |  |  |  |  | 6.6 | 41.3 | 0.2 | 1.9 | 9.7 | 48.4 | >50 | 2.9 | >50 | 3.9 | 0.88
